Patent EP0003892A1, “Beta-lactam compounds, processes for their production, compositions containing them and intermediates of use in their preparation” (GLAXO GROUP LIMITED, priority 1978, dated 1979)
≈ marks a conversion by molar mass, not a printed value. Read-outs that look alike come from different tables or passages of the source.

Tests used:
Test in all cases: Determination of Minimum Inhibitory Concentrations (MIC), agar dilution
Type in all cases: cell-based
[1] = system: E. cloacae 1321E; settings: Enterobacter cloacae
Protocol: (§1) 1. Determination of Minimum Inhibitory Concentrations (MIC)
(§2) Serial two-fold dilutions of freshly prepared test solutions were made into Oxoid No. 1 Nutrient agar with or without added enrichment and poured into petri diches. Plates were inoculated with a multipoint inoculator with inoculum containing approximately […] of the organisms shown in the following Tables, all of which organisms are clinical isolates. The MIC, quoted in the Tables as µg/ml, was read after 18 hours incubation at 37°C as the lowest concentration which inhibited growth.

[2] = system: E. coli 851E; settings: Escherichia coli
Protocol: as §1, §2

[3] = system: K. aerogenes 1522E; settings: Klebsiella aerogenes
Protocol: as §1, §2

[4] = system: E. cloacae 1051E; settings: Enterobacter cloacae
Protocol: as §1, §2

[5] = system: Micrococcus Sp 1810E; settings: SP1810E
Protocol: as §1, §2

[6] = system: H. influenzae 1184E; settings: Haemophilus influenzae
Protocol: as §1, §2

[7] = system: Pr. mirabilis 431E; settings: Proteus mirabilis
Protocol: as §1, §2

[8] = system: Staph.aureus 853E; settings: Staphylococcus aureus
Protocol: as §1, §2

Row | MIC ([1]; E. cloacae 1321E, clinical isolate, Oxoid No. 1 Nutrient agar, read after 18 hours incubation at 37°C, read-out: MIC) | MIC ([2]; E. coli 851E, clinical isolate, Oxoid No. 1 Nutrient agar, read after 18 hours incubation at 37°C, read-out: MIC) | MIC ([3]; K. aerogenes 1522E, clinical isolate, Oxoid No. 1 Nutrient agar, read after 18 hours incubation at 37°C, read-out: MIC) | MIC ([4]; E. cloacae 1051E, clinical isolate, Oxoid No. 1 Nutrient agar, read after 18 hours incubation at 37°C, read-out: MIC) | MIC ([5]; Micrococcus Sp 1810E, clinical isolate, Oxoid No. 1 Nutrient agar, read after 18 hours incubation at 37°C, read-out: MIC) | MIC ([6]; H. influenzae 1184E, clinical isolate, Oxoid No. 1 Nutrient agar, read after 18 hours incubation at 37°C, read-out: MIC) | MIC ([7]; Pr. mirabilis 431E, clinical isolate, Oxoid No. 1 Nutrient agar, read after 18 hours incubation at 37°C, read-out: MIC) | MIC ([8]; Staph.aureus 853E, clinical isolate, Oxoid No. 1 Nutrient agar, read after 18 hours incubation at 37°C, read-out: MIC) | Structure (SMILES) | MIC ([1]; 1321E, 18 h) | MIC ([2]; 851E, 18 h) | MIC ([3]; 1522E, 18 h) | MIC ([4]; 1051E, 18 h) | MIC ([5]; Micrococcus, 18 h) | MIC ([6]; 1184E, 18 h) | MIC ([7]; 431E, 18 h) | MIC ([8]; 853E, 18 h)
1 | – | – | – | – | – | – | – | – | CCOC(=S)SCCC1=C(C(=O)[O-])N2C(=O)CC2S1.[K+] (racemic) [Example 36, Potassium (5RS)-2-(2-ethoxythiocarbonylthioethyl)pen-2-em-3-carboxylate] | 16 µg/mL | 8 µg/mL | 16 µg/mL | 62 µg/mL | < 0.1 µg/mL | 4 µg/mL | 8 µg/mL | < 0.1 µg/mL
2 | 31 µg/mL (≈ 97.3 µM) | 31 µg/mL (≈ 97.3 µM) | 31 µg/mL (≈ 97.3 µM) | > 250 µg/mL | < 0.1 µg/mL | 2 µg/mL (≈ 6.28 µM) | 16 µg/mL (≈ 50.2 µM) | < 0.1 µg/mL | CN(C)C(=S)SCCC1=C(C(=O)O)N2C(=O)CC2S1 (racemic) [Example 38, (5RS)-2-(2-N,N-Dimethylthiocarbamoylthioethyl)pen-2-em-3-carboxylic acid] | – | – | – | – | – | – | – | –
3 | – | – | – | – | – | – | – | – | CC(=O)SCCC1=C(C(=O)[O-])N2C(=O)CC2S1.[K+] (racemic) [Example 29, Potassium (5RS)-2-(2-acetylthioethyl)pen-2-em-3-carboxylate] | 1 µg/mL | 1 µg/mL | 2 µg/mL | 16 µg/mL | < 0.1 µg/mL | 8 µg/mL | 1 µg/mL | < 0.1 µg/mL
